For this assay, the system named is HIV-1 (NL4-3 strain). The assay is described as follows: Assay for inhibition of HIV replication (MT4-gag-GFP reporter cell line, wild type cell assay, Viking). It counts as cell-based. The conditions noted are these: IP from 4-parameter dose response curve. As to the method:
This assay is a kinetic assay that employs a reporter cell line (MT4-gag-GFP) to quantify the number of new cells infected in each round of replication.
MT4-GFP cells (250,000 cells/ml) were bulk-infected with HIV-1 (NL4-3 strain) at low multiplicity of infection (MOI) in RPMI+10% FBS for 24 hours. Cells were then washed once in RPMI+10% FBS and resuspended in RPMI+0% or 10% or 100% normal human serum (NHS). Test compounds were serial-diluted in DMSO on ECHO. The infected MT4-GFP cells were added to a 384-well poly-D-lysine coated black plate with clear bottom in which the diluted test compounds were placed. The cells were seeded at 8,000 cells per well and the final DMSO concentration was 0.4%. The infected cells (Green GFP cells) were quantified at both 24 and 48 hours post incubation using Acumen eX3. Viral reproductive ratio (R0) was determined using the number of infected cells at 48 hours divided by the number of infected cells at 24 hours. Percent viral growth inhibition was calculated by [1−(R−Rtripledrug)/(RDMSO−Rtripledrug)]*100. Compound potency IP or IC50 was determined by a 4-parameter dose response curve analysis.

Setting [1] is: MT4-GFP cells infected with HIV-1 NL4-3, 0% normal human serum, read-out: WILD TYPE CELL ASSAY Viking IP (0% NHS).
Where [2] appears, read: MT4-GFP cells infected with HIV-1 NL4-3, 100% normal human serum, read-out: WILD TYPE CELL ASSAY Viking IP (100% NHS).
[3] abbreviates: Human immunodeficiency virus 1, NL43, MT4-GFP cells infected with HIV-1 NL4-3, 0% normal human serum, read-out: WILD TYPE CELL ASSAY Viking IP (0% NHS).
Setting [4] is: Human immunodeficiency virus 1, NL43, MT4-GFP cells infected with HIV-1 NL4-3, 100% normal human serum, read-out: WILD TYPE CELL ASSAY Viking IP (100% NHS).

Where two headings read alike, the source gives them in different places. A value given as a limit tells only on which side of the number the result lay.

This is an account of results in patent publication US10544155B2, “Spirocyclic quinolizine derivatives useful as HIV integrase inhibitors” (MERCK SHARP & DOHME CORP., priority 2015, dated 2020).

For the compound `CC1(C)C(=O)c2c(O)c(=O)c(-c3nnc(Cc4ccc(F)cc4F)s3)cn2CC12CCCO2` (stereo not drawn) [Compound 12], the IC50 is, setting by setting: under setting [1], 5 nM; under setting [2], over 8000 nM.
Turning to `CC1COC2(C1)Cn1cc(C(=O)NCc3cccc(Cl)c3F)c(=O)c(O)c1C(=O)C2(C)C` (single isomer, unassigned) [Compound 22], the IC50 runs as follows: under setting [1], 0.8 nM; under setting [2], 1540 nM.
For `CC1COC2(C1)Cn1cc(C(=O)NCc3ccc(F)cc3F)c(=O)c(O)c1C(=O)C2(C)C` (stereo not drawn) [Compound 18], the IC50 reads like this: under setting [1], 2.7 nM; under setting [2], 855 nM.
For the compound `CC1COC2(C1)Cn1cc(C(=O)NCc3ccc(F)cc3F)c(=O)c(O)c1C(=O)C2(C)C` (stereo not drawn) [Compound 16], the IC50 is, setting by setting: under setting [3], 3.1 nM; under setting [2], 634 nM.
On to `CC1(C)C(=O)c2c(O)c(=O)c(C(=O)NCc3cccc(Cl)c3F)cn2CC12CCCO2` (single isomer, unassigned) [Compound 6], for which the IC50 runs as follows: under setting [3], 1.8 nM; under setting [4], 581 nM.
For `CC1(C)C(=O)c2c(O)c(=O)c(C(=O)NCc3ccc(F)c(Cl)c3F)cn2CC12CCCO2` (stereo not drawn) [Compound 9], in that order: 1.7 nM and 6670 nM.
Regarding `CC1(C)C(=O)c2c(O)c(=O)c(C(=O)NCc3ccc(F)cc3F)cn2CC12CCCCO2` (stereo not drawn) [Compound 3], the IC50 reads like this: under setting [1], 4.2 nM; under setting [2], 2540 nM.
As to `CC1(C)C(=O)c2c(O)c(=O)c(C(=O)NCc3ccc(F)cc3)cn2CC12CCCO2` (stereo not drawn) [Compound 11], the IC50 is, setting by setting: under setting [3], 7.8 nM; under setting [4], 4920 nM.
Take `CC1(C)C(=O)c2c(O)c(=O)c(C(=O)NCc3ccc(F)cc3F)cn2CC12CCCO2` (single isomer, unassigned) [Compound 1]: the IC50 was 0.9 nM under setting [1] and 175 nM under setting [2].
In the case of `CC1(C)C(=O)c2c(O)c(=O)c(C(=O)NCc3ccc(F)cc3F)cn2CC12CCCO2` (single isomer, unassigned) [Compound 2], the IC50 is, setting by setting: under setting [1], 1.2 nM; under setting [2], 2300 nM.
As to `CC1COC2(C1)Cn1cc(-c3nnc(Cc4ccc(F)cc4F)s3)c(=O)c(O)c1C(=O)C2(C)C` (single isomer, unassigned) [Compound 24], the IC50 under setting [3] is 2.9 nM and the IC50 under setting [2] came out at 354 nM.
Regarding `CC1(C)C(=O)c2c(O)c(=O)c(C(=O)NCc3cccc(Cl)c3F)cn2CC12CCCO2` (stereo not drawn) [Compound 7], the IC50 runs as follows: under setting [3], 1.8 nM; under setting [4], over 8000 nM.
Turning to `CC1COC2(C1)Cn1cc(C(=O)NCc3cccc(Cl)c3F)c(=O)c(O)c1C(=O)C2(C)C` (single isomer, unassigned) [Compound 23], the IC50 by setting is: under setting [1], 1 nM; under setting [2], 717 nM.
As to `CC1n2cc(C(=O)NCc3ccc(F)cc3F)c(=O)c(O)c2C(=O)C(C)(C)C12CCCO2` (stereo not drawn) [Compound 15], the IC50 turned out to be 2.4 nM under setting [3] and 149 nM under setting [4].
As for `C/C=C1\C(=O)c2c(O)c(=O)c(C(=O)NCc3ccc(F)cc3F)cn2CC12CCOCC2` [Compound 5], the IC50 is, setting by setting: under setting [1], 3.9 nM; under setting [2], 592 nM.
On to `CC1COC2(C1)Cn1cc(C(=O)NCc3cccc(Cl)c3F)c(=O)c(O)c1C(=O)C2(C)C` (single isomer, unassigned) [Compound 21], for which the IC50 runs as follows: under setting [1], 1.3 nM; under setting [2], 226 nM.
In the same order, the values of `CC1COC2(C1)Cn1cc(C(=O)NCc3ccc(F)cc3F)c(=O)c(O)c1C(=O)C2(C)C` (stereo not drawn) [Compound 19] are 2.6 nM and 453 nM.
Take `CC1(C)C(=O)c2c(O)c(=O)c(C(=O)NCc3ccc(F)cc3)cn2CC12CCCO2` (single isomer, unassigned) [Compound 10]: the IC50 reads like this: under setting [3], 7 nM; under setting [4], 425 nM.
With `CC1(C)C(=O)c2c(O)c(=O)c(-c3nnc(Cc4ccc(F)cc4F)s3)cn2CC12CCCO2` (stereo not drawn) [Compound 13], the IC50 worked out at 5.4 nM under setting [1] and 585 nM under setting [2].
For `CC1COC2(C1)Cn1cc(-c3nnc(Cc4ccc(F)cc4F)s3)c(=O)c(O)c1C(=O)C2(C)C` (single isomer, unassigned) [Compound 25], in that order: 3.8 nM and 1120 nM.
As to `CC1COC2(C1)Cn1cc(C(=O)NCc3ccc(F)cc3F)c(=O)c(O)c1C(=O)C2(C)C` (stereo not drawn) [Compound 17], the IC50 stood at 3.1 nM under setting [1] and 307 nM under setting [2].
On to `CC1(C)C(=O)c2c(O)c(=O)c(C(=O)NCc3ccc(F)c(Cl)c3F)cn2CC12CCCO2` (single isomer, unassigned) [Compound 8], for which the IC50 came out at 1.7 nM under setting [3] and 585 nM under setting [4].
In the same order, the values of `CC1n2cc(C(=O)NCc3ccc(F)cc3F)c(=O)c(O)c2C(=O)C(C)(C)C12CCCO2` (single isomer, unassigned) [Compound 14] are 2 nM and 3300 nM.
For `CC1COC2(C1)Cn1cc(C(=O)NCc3cccc(Cl)c3F)c(=O)c(O)c1C(=O)C2(C)C` (single isomer, unassigned) [Compound 20], the IC50 amounted to 2 nM under setting [1] and 1160 nM under setting [2].
